Assay results from US20230399298A1 (priority 2020, published 2023).

Key:
[1] = Raw material accelerated stability comparison test (40° C., RH 75%, light-shielding seal, HPLC); format: physicochemical
Experimental: (§1) The HPLC conditions used in the present disclosure were as follows, and the purity of donepezil ether palmitate hydrochloride was measured. • 1) detector: ultraviolet absorption photometer (measurement wavelength: 276 nm) • 2) column: YMC-Pack Pro C18 (4.6×250 mm, 5 μm) • 3) mobile phase A: Solution obtained by dissolving 1.88 g of sodium 1-hexanesulfonate in 1000 mL of purified water, and then adding 1.0 mL of phosphoric acid thereto, wherein each amount of reaction substances was accurately weighed. • 4) mobile phase B: acetonitrile
accelerated stability over time of donepezil ether palmitate (DEP) and donepezil ether palmitate hydrochloride (DEP HCl).
Specifically, in the experiments, each compound was stored in a light-shielding seal under accelerated conditions (40° C., RH 75%), and the chemical stability thereof was analyzed by HPLC (purity and increased amount of related substances).

[2] = Raw material harsh stability comparison test (60° C., HPLC); format: physicochemical
Experimental: as §1
Experiments were conducted to evaluate the raw material harsh stability over time of donepezil ether palmitate (DEP) and donepezil ether palmitate hydrochloride (DEP HCl).
Specifically, in the experiments, each compound was stored under a condition of 60° C., and the chemical stability thereof was analyzed by HPLC (purity and increased amount of related substances).

[3] = Formulation stability comparison test (suspension in benzyl benzoate and castor oil, 60° C. and 80° C., HPLC); format: physicochemical
Experimental: as §1
Experiments were conducted to evaluate the formulation stability over time of donepezil ether palmitate (DEP) and donepezil ether palmitate hydrochloride (DEP HCl).
Specifically, each of DEP and DEP HCl was mixed with benzyl benzoate and castor oil to prepare a suspension, and then stored at 60° C. and 80° C. The chemical stability was analyzed by HPLC (purity and increased amount of related substances), and results thereof are shown in Table 4.

## CCCCCCCCCCCCCCOCC(=O)OC1=C(CC2CCN(Cc3ccccc3)CC2)Cc2cc(OC)c(OC)cc21 [DEP, 2-((1-benzylpiperidin-4-yl)methyl)-5,6-dimethoxy-1H-inden-3-yl 2-(tetradecyloxy)acetate]
[1]; 6th month versus initial
  purity decreased by: about 2.47%
[1]; Initial
  PT impurity: 0.02%
  Purity: 99.22%
[1]; Month 1
  PT impurity: 0.04%
  Purity: 99.05%
[1]; Month 3
  PT impurity: 0.08%
  Purity: 98.65%
[1]; Month 6
  PT impurity: 0.13%
  Purity: 96.75%
[2]; 2nd week versus initial
  purity decreased by: about 18.60%
[2]; Day 1
  PT impurity: 1.61%
  Purity: 95.44%
[2]; Day 3
  PT impurity: 3.33%
  Purity: 92.05%
[2]; Initial
  Purity: 99.76%
[2]; Week 2
  PT impurity: 4.39%
  Purity: 81.16%
[3]; Day 1 at 80° C.
  Purity: 97.96%
[3]; Initial
  Purity: 99.79%
[3]; Week 1 at 60° C.
  Purity: 97.54%
other
  melting point: 55.1 °C
